We go through one compound from ChEMBL document CHEMBL1151355, “The isolation of loliolide from an Indian Ocean opisthobranch mollusc” (1980).

Values after ≈ are worked out from the molar mass of the structure shown. Active and inactive are the calls of the source. The rule behind the calls is not given here.

In experiment [1] the test system is KB. The experiment in a line: Cytotoxicity against human KB cells. Type of experiment: functional. To be noted: read-out: ED50 (the source's name).
The test system of experiment [2] is P388. The experiment in a line: Cytotoxicity against mouse P388 cells. Type of experiment: functional. To be noted: read-out: ED50 (the source's name).
Experiment [3] has as its system P388. The experiment in a line: In vivo cytotoxicity against mouse P388 cells at 2.5 to 10 mg/kg. Type of experiment: functional, organism-based.

With `CC1(C)CC(O)C[C@@]2(C)OC(=O)C=C12` (stereo partly drawn), the EC50 in experiment [1] was 10 µg/mL (≈ 51 µM); in experiment [2], 3.5 µg/mL (≈ 17.8 µM). Moreover, the result in experiment [3] was inactive.
